pIC50: −log10 of the molar value. Several values for one entry are separate records, joined by “and”; a condition that tells them apart may be missing. Equal values may be shown once. Read-outs that look alike come from different tables or passages of the source.
Tests used:
Assay type in all cases: cell-based, human
H460 = experiment: Chemosensitivity, 96 h continuous exposure, MTT assay; conditions: for Selectivity index (ARPE19): IC50 ARPE-19 / IC50 H460; for Selectivity index (MCF10A): IC50 MCF10A / IC50 H460; for Relative potency (+ anion to no anion), Ratio + anion:no anion: ratio of IC50, H460; for Selectivity indices relative to ARPE-19, Ratio + anion:no anion: ratio of SI (ARPE-19); for Selectivity indices relative to MCF10A, Ratio + anion:no anion: ratio of SI (MCF 10A);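 as to SI (NPI): adult human brain neural progenitor non-cancer cells from an epilepsy surgery patient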;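 as to Selectivity Index using the NPI non-cancer cell line: adult human brain neural progenitor non-cancer cells from an epilepsy surgery patient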
Outline: (§1)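 Cells were seeded overnight at 37 °C (2 × 10^3/well; GBM1 at 3 × 10^3/well on poly-L-ornithine/laminin in Neurobasal with hFGF/rhEGF), then exposed to compound concentration ranges for 96 h. Viability was read by MTT (4 h, formazan in DMSO, A540) and IC50 taken from dose–response curves.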

PSN1 = experiment: as above; conditions: for Selectivity index (ARPE19): IC50 ARPE-19 / IC50 PSN1; for Selectivity index (MCF10A): IC50 MCF10A / IC50 PSN1; for Relative potency (+ anion to no anion), Ratio + anion:no anion: ratio of IC50, PSN1; for Selectivity indices relative to ARPE-19, Ratio + anion:no anion: ratio of SI (ARPE-19); for Selectivity indices relative to MCF10A, Ratio + anion:no anion: ratio of SI (MCF 10A);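 as to SI (NPI): adult human brain neural progenitor non-cancer cells from an epilepsy surgery patient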;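 as to Selectivity Index using the NPI non-cancer cell line: adult human brain neural progenitor non-cancer cells from an epilepsy surgery patient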
Outline: as §1

HCT116 p53-/- [1] = experiment: as above; conditions: for pIC50 / Selectivity indices relative to ARPE-19, Ratio + anion:no anion / Selectivity indices relative to MCF10A, Ratio + anion:no anion: HCT116 p53-/-; for Selectivity index (ARPE19): IC50 ARPE-19 / IC50 HCT116 p53-/-; for Selectivity index (MCF10A): IC50 MCF10A / IC50 HCT116 p53-/-; for SI (ARPE19): mean IC50 ARPE-19 / mean IC50 HCT116 p53-/-; for Relative potency (+ anion to no anion), Ratio + anion:no anion: ratio of IC50, HCT116 p53-/-; for Selectivity indices relative to ARPE-19, Ratio + anion:no anion: ratio of SI (ARPE-19); for Selectivity indices relative to MCF10A, Ratio + anion:no anion: ratio of SI (MCF 10A)
Outline: as §1

HT-29 = experiment: as above; conditions: for Selectivity index (ARPE19): IC50 ARPE-19 / IC50 HT29; for Selectivity index (MCF10A): IC50 MCF10A / IC50 HT29; for Relative potency (+ anion to no anion), Ratio + anion:no anion: ratio of IC50, HT29; for Selectivity indices relative to ARPE-19, Ratio + anion:no anion: ratio of SI (ARPE-19); for Selectivity indices relative to MCF10A, Ratio + anion:no anion: ratio of SI (MCF 10A)
Outline: as §1

HCT116 p53-/- [2] = experiment: Confocal imaging of autophagic cells (CYTO-ID); conditions: 3.125 µM, 40 h
Experimental: Cells were seeded in Lumox chamber slides (8-well, Sarstedt) at a density of 1.25 × 10^4 cells/well (ARPE-19) or 5.625 × 10^4 cells/well (HCT116 p53^−/− and HCT116 p53^+/+). 24 h after seeding, cells were treated with 3.125 μM of [L2Cu3]^6+, [L2Zn3]^6+, [L2Mn3]^6+, or vehicle control for 40 h before removal and addition of CYTO-ID Green autophagic dye (1:500 dilution, Enzo Life Sciences) and Hoechst 3342 nuclear counter stain for 30 min at 37 °C. Media was then replaced before imaging using a Zeiss LSM880 confocal laser scanning microscope.

[3] = H460, mean of replicates, read-out: Mean IC50
[4] = H460, read-out: Mean IC50 values
[5] = PSN1, mean of replicates, read-out: Mean IC50
[6] = PSN1, read-out: Mean IC50 values
[7] = 96 h, MTT, individual run, read-out: IC50 values for each replicate
[8] = 96 h, MTT, mean of at least 3 independent experiments, read-out: Mean IC50
[9] = mean of replicates, read-out: Mean IC50
[10] = HT29, mean of replicates, read-out: Mean IC50
[11] = HT29, read-out: Mean IC50 values

Compound: [Cu+2].[Cu+2].[Cu+2].c1ccc(-c2csc(NCCN(CCNc3nc(-c4ccccn4)cs3)CCNc3nc(-c4ccccn4)cs3)n2)nc1.c1ccc(-c2csc(NCCN(CCNc3nc(-c4ccccn4)cs3)CCNc3nc(-c4ccccn4)cs3)n2)nc1 [[L2Cu3]6+]
- pIC50 (H460; H460, 96 h, MTT, individual run, read-out: IC50 values for each replicate): 6.59 and 6.63 and 6.35 and 6.79
- pIC50 (H460; H460, 96 h, MTT, mean of at least 3 independent experiments, read-out: Mean IC50): 6.56
- pIC50 (H460; [3]): 6.56
- pIC50 (H460; [4]): 6.56
- Selectivity index (ARPE19) (H460): 190.69
- Selectivity index (MCF10A) (H460): 174.86
- Selectivity Index using the NPI non-cancer cell line (H460; IC50 NP1 / IC50 H460): 156.12
- SI (ARPE19) (H460; mean IC50 ARPE-19 / mean IC50 H460): 190.69
- SI (MCF10A) (H460; mean IC50 MCF10A / mean IC50 H460): 174.86
- SI (NPI) (H460; mean IC50 NP1 / mean IC50 H460): 156.12
- Relative potency (+ anion to no anion), Ratio + anion:no anion (H460): 1
- Selectivity indices relative to ARPE-19, Ratio + anion:no anion (H460; H460): 1
- Selectivity indices relative to MCF10A, Ratio + anion:no anion (H460; H460): 1
- Selectivity index (ARPE19) (PSN1): 8.16
- Selectivity index (MCF10A) (PSN1): 7.48
- Selectivity Index using the NPI non-cancer cell line (PSN1; IC50 NP1 / IC50 PSN1): 6.68
- pIC50 (PSN1; PSN1, 96 h, MTT, individual run, read-out: IC50 values for each replicate): 5.20 and 5.22 and 5.15
- pIC50 (PSN1; PSN1, 96 h, MTT, mean of at least 3 independent experiments, listed as [L2Cu3]^6+, read-out: Mean IC50): < 6.00
- pIC50 (PSN1; PSN1, 96 h, MTT, mean of at least 3 independent experiments, read-out: Mean IC50): 5.19
- pIC50 (PSN1; [5]): 5.19
- pIC50 (PSN1; [6]): 5.19
- SI (ARPE19) (PSN1; mean IC50 ARPE-19 / mean IC50 PSN1): 8.16
- SI (MCF10A) (PSN1; mean IC50 MCF10A / mean IC50 PSN1): 7.48
- SI (NPI) (PSN1; mean IC50 NP1 / mean IC50 PSN1): 6.68
- Relative potency (+ anion to no anion), Ratio + anion:no anion (PSN1): 1
- Selectivity indices relative to ARPE-19, Ratio + anion:no anion (PSN1; PSN1): 1
- Selectivity indices relative to MCF10A, Ratio + anion:no anion (PSN1; PSN1): 1
- pIC50 (HCT116 p53-/- [1]; [7]): 6.62 and 7.05 and 6.72 and 7.06 and 7.17 and 6.81
- pIC50 (HCT116 p53-/- [1]; [8]): 6.86
- pIC50 (HCT116 p53-/- [1]; [9]): 6.86
- pIC50 (HCT116 p53-/- [1]; read-out: Mean IC50 values): 6.86
- Selectivity index (ARPE19) (HCT116 p53-/- [1]): 384.16 and 384.82
- Selectivity index (MCF10A) (HCT116 p53-/- [1]): 352.26
- Selectivity Index using the NPI non-cancer cell line (HCT116 p53-/- [1]; IC50 NP1 / IC50 HCT116 p53-/-): 314.53
- SI (ARPE19) (HCT116 p53-/- [1]): 384.16
- SI (MCF10A) (HCT116 p53-/- [1]; mean IC50 MCF10A / mean IC50 HCT116 p53-/-): 352.26
- SI (NPI) (HCT116 p53-/- [1]; mean IC50 NP1 / mean IC50 HCT116 p53-/-): 314.53
- Relative potency (+ anion to no anion), Ratio + anion:no anion (HCT116 p53-/- [1]): 1
- Selectivity indices relative to ARPE-19, Ratio + anion:no anion (HCT116 p53-/- [1]): 1
- Selectivity indices relative to MCF10A, Ratio + anion:no anion (HCT116 p53-/- [1]): 1
- pIC50 (HT-29; [10]): 6.67
- pIC50 (HT-29; [11]): 6.67
- pIC50 (HT-29; HT-29, 96 h, MTT, individual run, read-out: IC50 values for each replicate): 6.74 and 6.68 and 6.56 and 6.65 and 6.76
- pIC50 (HT-29; HT-29, 96 h, MTT, mean of at least 3 independent experiments, read-out: Mean IC50): 6.67
- Selectivity index (ARPE19) (HT-29): 245.93
- Selectivity index (MCF10A) (HT-29): 225.51
- Selectivity Index using the NPI non-cancer cell line (HT-29; IC50 NP1 / IC50 HT29): 201.36
- SI (ARPE19) (HT-29; mean IC50 ARPE-19 / mean IC50 HT-29): 245.93
- SI (MCF10A) (HT-29; mean IC50 MCF10A / mean IC50 HT-29): 225.51
- SI (NPI) (HT-29; mean IC50 NP1 / mean IC50 HT-29): 201.36
- Relative potency (+ anion to no anion), Ratio + anion:no anion (HT-29): 1
- Selectivity indices relative to ARPE-19, Ratio + anion:no anion (HT-29; HT29): 1
- Selectivity indices relative to MCF10A, Ratio + anion:no anion (HT-29; HT29): 1
- induction of vacuoles / autophagy (CYTO-ID) (HCT116 p53-/- [2]): no or little autophagy
- induction of vacuoles / autophagy (CYTO-ID) (HCT116 p53-/- [2]; listed as [L2Cu3]^6+): did not

Compound: [Mn+2].[Mn+2].[Mn+2].c1ccc(-c2csc(NCCN(CCNc3nc(-c4ccccn4)cs3)CCNc3nc(-c4ccccn4)cs3)n2)nc1.c1ccc(-c2csc(NCCN(CCNc3nc(-c4ccccn4)cs3)CCNc3nc(-c4ccccn4)cs3)n2)nc1 [[L2Mn3]6+]
- pIC50 (HCT116 p53-/- [1]; [7]): 5.81 and 6.11 and 5.87 and 5.89
- pIC50 (HCT116 p53-/- [1]; [8]): 5.90
- pIC50 (HCT116 p53-/- [1]; read-out: Mean IC50 values): 5.90
- Selectivity index (ARPE19) (HCT116 p53-/- [1]): 2.30
- SI (ARPE19) (HCT116 p53-/- [1]): 2.295
- induction of vacuoles / autophagy (CYTO-ID) (HCT116 p53-/- [2]): most pronounced
- induction of vacuoles / autophagy (CYTO-ID) (HCT116 p53-/- [2]; listed as Mn^2+ complex): also induced autophagy

Compound: O=S(=O)(O)O.[Zn+2].[Zn+2].[Zn+2].c1ccc(-c2csc(NCCN(CCNc3nc(-c4ccccn4)cs3)CCNc3nc(-c4ccccn4)cs3)n2)nc1.c1ccc(-c2csc(NCCN(CCNc3nc(-c4ccccn4)cs3)CCNc3nc(-c4ccccn4)cs3)n2)nc1 [[L2Zn3(SO4)]4+]
- pIC50 (H460; [3]): 6.63
- pIC50 (H460; [4]): 6.63
- pIC50 (H460; H460, single replicate, read-out: IC50 values for each replicate): 6.72 and 6.58 and 6.60
- Selectivity index (ARPE19) (H460): 726.48
- Selectivity index (MCF10A) (H460): 65.36
- Relative potency (+ anion to no anion), Ratio + anion:no anion (H460): 0.65
- Selectivity indices relative to ARPE-19, Ratio + anion:no anion (H460; H460): 1.663
- Selectivity indices relative to MCF10A, Ratio + anion:no anion (H460; H460): 1.128
- Selectivity index (ARPE19) (PSN1): 748.98
- Selectivity index (MCF10A) (PSN1): 67.38
- pIC50 (PSN1; [5]): 6.65
- pIC50 (PSN1; [6]): 6.65
- pIC50 (PSN1; PSN1, single replicate, read-out: IC50 values for each replicate): 6.66 and 6.70 and 6.58
- activity relative to [L2Zn3(PO4)]3+ or [L2Zn3]6+ (PSN1; PSN1 cell line, anion pre-encapsulated): significantly more active
- Relative potency (+ anion to no anion), Ratio + anion:no anion (PSN1): 0.05
- Selectivity indices relative to ARPE-19, Ratio + anion:no anion (PSN1; PSN1): 21.164
- Selectivity indices relative to MCF10A, Ratio + anion:no anion (PSN1; PSN1): 1.852
- pIC50 (HCT116 p53-/- [1]; [9]): 7.21
- pIC50 (HCT116 p53-/- [1]; read-out: Mean IC50 values): 7.21
- pIC50 (HCT116 p53-/- [1]; single replicate, read-out: IC50 values for each replicate): 7.23 and 7.19 and 7.21
- Selectivity index (ARPE19) (HCT116 p53-/- [1]): 2774.92
- Selectivity index (MCF10A) (HCT116 p53-/- [1]): 249.64
- Relative potency (+ anion to no anion), Ratio + anion:no anion (HCT116 p53-/- [1]): 0.85
- Selectivity indices relative to ARPE-19, Ratio + anion:no anion (HCT116 p53-/- [1]): 1.271
- Selectivity indices relative to MCF10A, Ratio + anion:no anion (HCT116 p53-/- [1]): 0.111
- pIC50 (HT-29; [10]): 6.62
- pIC50 (HT-29; [11]): 6.62
- pIC50 (HT-29; HT-29, single replicate, read-out: IC50 values for each replicate): 7.15 and 6.78 and 6.68 and 6.61 and 6.30
- Selectivity index (ARPE19) (HT-29): 711.22
- Selectivity index (MCF10A) (HT-29): 63.98
- Relative potency (+ anion to no anion), Ratio + anion:no anion (HT-29): 1.41
- Selectivity indices relative to ARPE-19, Ratio + anion:no anion (HT-29; HT29): 0.764
- Selectivity indices relative to MCF10A, Ratio + anion:no anion (HT-29; HT29): 0.067
